Test results published in ChEMBL document CHEMBL4342407, “Thieno[2,3-d]pyrimidine as a promising scaffold in medicinal chemistry: Recent advances” (Bioorg Med Chem, 2019).
In brackets after ≈: the same amount, converted by molar mass.

How the values were obtained:
Aspergillus niger [1] = assay: Antifungal activity against Aspergillus niger incubated for 24 to 72 hrs by Serial dilution method; type: functional
Aspergillus niger [2] = assay: Antifungal activity against Aspergillus niger assessed as diameter of zone inhibition at 0.5% incubated for 24 hrs by stiff plate agar diffusion method; type: functional
Escherichia coli [3] = assay: Antibacterial activity against Escherichia coli assessed as diameter of zone inhibition at 0.5% incubated for 24 hrs by stiff plate agar diffusion method; type: functional
Staphylococcus aureus [4] = assay: Antibacterial activity against Staphylococcus aureus ATCC 25923 assessed as diameter of zone inhibition at 100 ug/ml; type: functional; conditions: read-out: DIZ
Escherichia coli [5] = assay: Antibacterial activity against Escherichia coli ATCC 25922 assessed as diameter of zone inhibition at 100 ug/ml; type: functional; conditions: read-out: DIZ
Bacillus subtilis [6] = assay: Antibacterial activity against Bacillus subtilis ATCC 6633 assessed as diameter of zone inhibition at 100 ug/ml; type: functional; conditions: read-out: DIZ
HCT-116 [7] = assay: Antiproliferative activity against human HCT116 after 48 hrs by MTT assay; type: functional; conditions: HCT-116, 48 h
HCT-15 = assay: Antiproliferative activity against human HCT15 after 48 hrs by MTT assay; type: functional; conditions: HCT-15, 48 h
HT-29 = assay: Antiproliferative activity against human HT-29 after 48 hrs by MTT assay; type: functional; conditions: HT-29, 48 h
BT-549 = assay: Antiproliferative activity against human BT549 after 48 hrs by MTT assay; type: functional; conditions: BT-549, 48 h
MDA-MB-453 = assay: Antiproliferative activity against human MDA-MB-453 after 48 hrs by MTT assay; type: functional; conditions: MDA-MB-453, 48 h
MCF7 [8] = assay: Antiproliferative activity against human MCF7 after 48 hrs by MTT assay; type: functional; conditions: MCF7, 48 h
A549 [9] = assay: Antiproliferative activity against human A549 after 48 hrs by MTT assay; type: functional; conditions: A549, 48 h
DU-145 = assay: Antiproliferative activity against human DU145 after 48 hrs by MTT assay; type: functional; conditions: DU-145, 48 h
Staphylococcus aureus [10] = assay: Antibacterial activity against Staphylococcus aureus assessed as diameter of zone inhibition at 0.5% incubated for 24 hrs by stiff plate agar diffusion method; type: functional
Rhodococcus fascians = assay: Antibacterial activity against Mycobacterium luteum assessed as diameter of zone inhibition at 0.5% incubated for 24 hrs by stiff plate agar diffusion method; type: functional, Rhodococcoides fascians
HepG2 = assay: Antiproliferative activity against human HepG2 after 24 hrs by MTT assay; type: functional, cell-based; conditions: HepG2, 24 h
HEp-2 = assay: Antiproliferative activity against human Hep2 after 24 hrs by MTT assay; type: functional, cell-based; conditions: HEp-2, 24 h
MCF7 [11] = assay: Antiproliferative activity against human MCF7 after 24 hrs by MTT assay; type: functional, cell-based; conditions: MCF7, 24 h
PC-3 = assay: Antiproliferative activity against human PC3 after 24 hrs by MTT assay; type: functional, cell-based; conditions: PC-3, 24 h
HeLa = assay: Antiproliferative activity against human HeLa after 24 hrs by MTT assay; type: functional, cell-based
[12] = Inhibition of PTK (unknown origin) using poly-Glu-Tyr (PGT) as substrate by ELISA; set-up: species or system Homo sapiens
Staphylococcus aureus [13] = assay: Antibacterial activity against Staphylococcus aureus ATCC 25923 assessed as diameter of zone inhibition at 30 ug/ml; type: functional; conditions: read-out: DIZ
Escherichia coli [14] = assay: Antibacterial activity against Escherichia coli ATCC 25922 assessed as diameter of zone inhibition at 30 ug/ml; type: functional; conditions: read-out: DIZ
Bacillus subtilis [15] = assay: Antibacterial activity against Bacillus subtilis ATCC 6633 assessed as diameter of zone inhibition at 30 ug/ml; type: functional; conditions: read-out: DIZ
Rattus norvegicus = assay: Antiinflammatory activity in Sprague-Dawley rat assessed as inhibition of carrageenan-induced edema at 10 mg/kg, po pretreated for 1 hr followed by carrageenan challenge and measured after 4 hrs by mercury plethysmometer relative to control; type: functional
Aspergillus niger [16] = assay: Antifungal activity against Aspergillus niger assessed as diameter of zone inhibition at 0.1% incubated for 24 hrs by stiff plate agar diffusion method; type: functional
A549 [17] = assay: Antiproliferative activity against human A549 after 18 hrs by MTT assay; type: functional, cell-based; conditions: A549, 18 h
HCT-116 [18] = assay: Antiproliferative activity against human HCT116 after 18 hrs by MTT assay; type: functional, cell-based; conditions: HCT-116, 18 h
MCF7 [19] = assay: Antiproliferative activity against human MCF7 after 18 hrs by MTT assay; type: functional, cell-based; conditions: MCF7, 18 h
Candida albicans = assay: Antifungal activity against Candida albicans ATCC 653/885 assessed as diameter of zone inhibition at 30 ug/ml; type: functional; conditions: read-out: DIZ

Work on `CCOC(=O)CSc1ncnc2sc(CC)c(CC)c12` yielded an MIC (Aspergillus niger [1]) of 31.2 µg/mL (≈ 101 µM).
For `Cc1sc2nc[nH]c(=[Se])c2c1C`, the “diameter of the inhibition zone (DIZ)” value (Aspergillus niger [2]) was 12 mm and the “diameter of the inhibition zone (DIZ)” value (Escherichia coli [3]) was 14.7 mm.
In the case of `Cc1c(-c2nnc(-c3ccccc3)o2)sc2c1c(=O)n(-c1ccccc1)c(=O)n2Cc1nc(-c2ccccc2)no1`, the zone of inhibition at 100 µg/mL (Staphylococcus aureus [4]) is reported as 15 mm, the zone of inhibition at 100 µg/mL (Escherichia coli [5]) is reported as 14 mm and the zone of inhibition at 100 µg/mL (Bacillus subtilis [6]) is reported as 17 mm.
For `Cc1ccc([N+](=O)[O-])c(C(=O)Nc2cccc(Nc3ncnc4sccc34)c2)c1`, the GI50 (HCT-116 [7]) was 3.5 µM, the GI50 (HCT-15) was 3.6 µM and the GI50 (HT-29) was > 10 µM. For the same compound, the GI50 (BT-549) was > 10 µM, the GI50 (MDA-MB-453) was 8.2 µM and the GI50 (MCF7 [8]) was 3.3 µM. It also gave a GI50 (A549 [9]) of 8.6 µM and a GI50 (DU-145) of 7.5 µM.
In the case of `CCc1sc2ncnc(SCC(=O)NS(=O)(=O)c3ccc(Cl)cc3)c2c1CC`, the “diameter of the inhibition zone (DIZ)” value (Staphylococcus aureus [10]) is reported as 12 mm and the “diameter of the inhibition zone (DIZ)” value (Rhodococcus fascians) is reported as 17 mm.
Work on `COc1cc(/C=C/C(=O)c2sc3nc(S)n(-c4ccccc4)c(=O)c3c2C)cc(OC)c1OC` yielded an IC50 (HepG2) of 20.6 µM, an IC50 (HEp-2) of 22.1 µM and an IC50 (MCF7 [11]) of 17.1 µM. The IC50 (PC-3) was 16.4 µM, the IC50 (HeLa) was 12.9 µM and the IC50 [12] was 203 µM.
In the case of `Cc1c(-c2nnc(-c3ccccc3)o2)sc2c1c(=O)n(-c1ccccc1)c(=O)n2Cc1nc(-c2ccc(Cl)cc2)no1`, the zone of inhibition at 100 µg/mL (Staphylococcus aureus [4]) is reported as 15 mm, the zone of inhibition at 100 µg/mL (Escherichia coli [5]) is reported as 14 mm and the zone of inhibition at 100 µg/mL (Bacillus subtilis [6]) is reported as 17 mm.
Compound `CN[C@@H]1[C@H](O[C@H]2[C@H](O[C@H]3[C@H](O)[C@@H](O)[C@H](N=C(N)N)[C@@H](O)[C@@H]3N=C(N)N)O[C@@H](C)[C@]2(O)C=O)O[C@@H](CO)[C@H](O)[C@H]1O` [STREPTOMYCIN] has a zone of inhibition at 30 µg/mL (Staphylococcus aureus [13]) of 15 mm, a zone of inhibition at 30 µg/mL (Escherichia coli [14]) of 16 mm and a zone of inhibition at 30 µg/mL (Bacillus subtilis [15]) of 17 mm.
Work on `Cc1ccc(/C=C/C(=O)c2sc3nc(S)n(-c4ccccc4)c(=O)c3c2C)cc1` yielded an IC50 (HepG2) of 7.99 µM, an IC50 (HEp-2) of 5.4 µM and an IC50 (MCF7 [11]) of 6.84 µM. For the same compound, the IC50 (PC-3) was 7.71 µM, the IC50 (HeLa) was 4.3 µM and the IC50 [12] was 136 µM.
Work on `COc1ccc2c(c1)c(CC(=O)O)c(C)n2C(=O)c1ccc(Cl)cc1` [INDOMETHACIN] yielded an inhibition in vivo at 10 mg/kg (Rattus norvegicus) of 49.1%.
In the case of `CCCCCc1sc2nc[nH]c(=[Se])c2c1CCCCC`, the “diameter of the inhibition zone (DIZ)” value (Aspergillus niger [2]) is reported as 22 mm, the “diameter of the inhibition zone (DIZ)” value (Aspergillus niger [16]) is reported as 12 mm and the “diameter of the inhibition zone (DIZ)” value (Escherichia coli [3]) is reported as 14 mm. It also gave an MIC (Aspergillus niger [1]) of 31.2 µg/mL (≈ 87.8 µM).
With `Cc1ccc(-c2cc(COc3ncnc4sc(C)cc34)on2)cc1` the IC50 (A549 [17]) was 144 µM, the IC50 (HCT-116 [18]) was 53.9 µM and the IC50 (MCF7 [19]) was 13.5 µM.
`Cc1ncc([N+](=O)[O-])n1CCO` [METRONIDAZOLE] gave a zone of inhibition at 30 µg/mL (Staphylococcus aureus [13]) of 14 mm, a zone of inhibition at 30 µg/mL (Escherichia coli [14]) of 14 mm and a zone of inhibition at 30 µg/mL (Bacillus subtilis [15]) of 16 mm. The zone of inhibition at 30 µg/mL (Candida albicans) was 14 mm.
Work on `Cc1c(-c2nnc(-c3ccccc3)o2)sc2c1c(=O)n(-c1ccccc1)c(=O)n2Cc1nc(-c2ccccc2Cl)no1` yielded a zone of inhibition at 100 µg/mL (Staphylococcus aureus [4]) of 15 mm, a zone of inhibition at 100 µg/mL (Escherichia coli [5]) of 14 mm and a zone of inhibition at 100 µg/mL (Bacillus subtilis [6]) of 17 mm.
